Experimental data: ChEMBL document CHEMBL1152784, “Discovery of 4-substituted methoxybenzoyl-aryl-thiazole as novel anticancer agents: synthesis, biological evaluation, and structure-activity relationships” (J Med Chem, 2009)
pIC50: −log10 of the molar value.

What was measured:
PPC-1 = experiment: Cytotoxicity against human PPC1 cells after 96 hrs by SRB assay
[1] = Cytotoxicity against mouse B16-F1 cells after 48 hrs by SRB assay; assay type: functional, cell-based; conditions: B16-F1, 48 h
LNCaP = experiment: Cytotoxicity against human LNCAP cells after 96 hrs by SRB assay
A-375 = experiment: Cytotoxicity against human A375 cells after 48 hrs by SRB assay; assay type: functional, cell-based; conditions: A-375, 48 h
DU-145 [2] = experiment: Cytotoxicity against human DU145 cells after 96 hrs by SRB assay; conditions: DU-145, 96 h
PC-3 = experiment: Cytotoxicity against human PC3 cells after 96 hrs by SRB assay; conditions: PC-3, 96 h
DU-145 [3] = experiment: Cytotoxicity against human DU145 cells after 48 hrs by SRB assay; assay type: functional, cell-based; conditions: DU-145, 48 h
Bos taurus = species on record: Bos taurus; experiment: Inhibition of bovine brain tubulin assessed as blockade of microtubule polymerization

Row | Compound | pIC50 (PPC-1; Homo sapiens, PPC-1, 96 h) | pIC50 [1] | pIC50 (LNCaP; Homo sapiens, LNCaP, 96 h) | pIC50 (A-375) | pIC50 (DU-145 [2]) | pIC50 (PC-3) | pIC50 (DU-145 [3]) | Activity (Bos taurus) | pIC50 (PPC-1; ppc-1) | pIC50 (LNCaP; lncap)
1 | COc1cc(C(=O)c2csc(-c3ccncc3)n2)cc(OC)c1OC [listing 1 of 2 here] | < 4.70 | < 4.00 | < 4.70 | < 4.00 | < 4.70 | < 4.70 | – | – | – | –
2 | COc1ccc(-c2nc(C(=O)c3cc(OC)c(OC)c(OC)c3)cs2)cc1OC | 7.25 | 6.79 | 7.42 | 7.47 | – | 7.16 | 3.99 | – | – | –
3 | COc1cc(C(=O)c2csc(-c3ccc([N+](=O)[O-])cc3)n2)cc(OC)c1OC | 7.47 | – | 7.41 | – | 7.02 | 7.25 | – | – | – | –
4 | COc1cc(C(=O)c2csc(-c3ccc(C(=O)O)cc3)n2)cc(OC)c1OC | < 4.70 | < 4.00 | < 4.70 | < 4.00 | < 4.70 | < 4.70 | – | – | – | –
5 | COc1cc(OC)cc(C(=O)c2csc(-c3ccccc3)n2)c1 | 6.62 | 6.46 | 6.49 | 6.77 | 6.37 | 6.52 | – | – | – | –
6 | CCCCCCCCCCCCCCCCNC(=O)[C@@H]1CSC(c2ccc(NC(C)=O)cc2)N1 (mixture of isomers) | 6.40 | 5.66 | 6.00 | 5.68 | 5.77 | – | – | – | – | –
7 | O=C(c1ccccc1)c1csc(-c2ccccc2)n1 | < 4.70 | < 4.00 | < 4.70 | < 4.00 | < 4.70 | < 4.70 | – | – | – | –
8 | COc1cc(NC(=O)[C@H]2CSC(c3ccccc3)=N2)cc(OC)c1OC | 5.47 | 4.52 | 4.77 | – | < 4.70 | 4.88 | – | – | – | –
9 | COc1cc(C(=O)c2csc(-c3ccc(N)cc3)n2)cc(OC)c1OC | 7.82 | 7.54 | 7.89 | 7.96 | 7.70 | 7.92 | – | – | – | –
10 | COc1cc(C(=O)c2csc(-c3ccccc3)n2)cc(OC)c1OC | 7.37 | 7.26 | 7.55 | 7.55 | 7.15 | 7.68 | – | Dose-dependent effect | – | –
11 | COc1cc(C(=O)c2csc(-c3ccc(Br)cc3)n2)cc(OC)c1OC | 7.68 | 7.49 | 7.36 | 7.89 | 7.68 | 7.74 | – | – | – | –
12 | CCc1ccc(-c2nc(C(=O)c3cc(OC)c(OC)c(OC)c3)cs2)cc1 | 7.66 | 7.15 | 7.22 | – | 7.51 | 7.57 | – | – | – | –
13 | CCCCCCCCCCCCCCCCC(=O)c1csc(-c2ccccc2)n1 | < 4.70 | 4.73 | < 4.70 | 4.80 | < 4.70 | < 4.70 | – | – | – | –
14 | O=C(c1cc(O)c(O)c(O)c1)c1csc(-c2ccccc2)n1 | < 4.70 | < 4.00 | < 4.70 | < 4.00 | < 4.70 | < 4.70 | – | – | – | –
15 | COc1cccc(C(=O)c2csc(-c3ccccc3)n2)c1 | < 4.70 | < 4.00 | < 4.70 | < 4.00 | < 4.70 | < 4.70 | – | – | – | –
16 | COc1cc(C(=O)c2csc(-c3ccc(C#N)cc3)n2)cc(OC)c1OC | 7.72 | – | 7.82 | 7.23 | 7.28 | 7.52 | – | – | – | –
17 | COc1cc(C(=O)c2csc(-c3ncccn3)n2)cc(OC)c1OC | 5.93 | – | 5.63 | 5.39 | 5.55 | 5.58 | – | – | – | –
18 | COc1cc(C(=O)c2csc(-c3cccc(F)c3)n2)cc(OC)c1OC | 7.68 | 6.54 | 7.96 | 6.52 | 7.46 | 7.62 | – | – | – | –

Row | Compound | pIC50 (PPC-1; Homo sapiens, PPC-1, 96 h) | pIC50 [1] | pIC50 (LNCaP; Homo sapiens, LNCaP, 96 h) | pIC50 (A-375) | pIC50 (DU-145 [2]) | pIC50 (PC-3) | pIC50 (DU-145 [3]) | Activity (Bos taurus) | pIC50 (PPC-1; ppc-1) | pIC50 (LNCaP; lncap)
19 | COc1ccc(C(=O)c2csc(-c3ccccc3)n2)cc1OC | < 4.70 | < 4.00 | < 4.70 | < 4.00 | < 4.70 | < 4.70 | – | – | – | –
20 | COc1cc(C(=O)c2csc(-c3cccs3)n2)cc(OC)c1OC | 7.89 | 7.42 | 8.05 | 7.70 | 7.66 | – | – | – | – | –
21 | CC(=O)Nc1ccc(C2N[C@H](C(=O)Nc3ccc4c(c3)Cc3ccccc3-4)CS2)cc1 (mixture of isomers) | 5.80 | – | 5.46 | – | 5.72 | 5.68 | – | – | – | –
22 | COc1cc(NC(=O)[C@@H]2CSC(c3ccccc3)=N2)cc(OC)c1OC | 5.28 | 4.42 | < 4.70 | 4.64 | < 4.70 | < 4.70 | – | – | – | –
23 | O=C(c1csc(-c2ccccc2)n1)c1ccccc1F | < 4.70 | < 4.00 | < 4.70 | < 4.00 | < 4.70 | < 4.70 | – | – | – | –
24 | COc1cc(C(=O)c2csc(-c3ccc(C(F)(F)F)cc3)n2)cc(OC)c1OC | 7.12 | – | 7.03 | 7.64 | 7.30 | 7.24 | – | – | – | –
25 | COc1cc(C(=O)c2csc(-c3ccc(F)cc3)n2)cc(OC)c1OC | – | 7.37 | 8.22 | 7.48 | – | 7.89 | – | – | – | –
26 | COc1cc(NC(=O)[C@@H]2CSC(c3ccccc3)N2)cc(OC)c1OC (mixture of isomers) | < 4.70 | < 4.00 | < 4.70 | < 4.00 | < 4.70 | < 4.70 | – | – | – | –
27 | COc1cc(C(=O)c2csc(-c3ccncc3)n2)cc(OC)c1OC [listing 2 of 2 here] | – | – | – | – | – | – | – | – | 4.74 | 4.78
28 | COc1cc(NC(=O)[C@@H]2CSC(c3cc(OC)c(OC)c(OC)c3)N2)cc(OC)c1OC (mixture of isomers) | < 4.70 | < 4.00 | < 4.70 | < 4.00 | < 4.70 | < 4.70 | – | – | – | –
29 | COc1cc(NC(=O)c2csc(-c3ccccc3)n2)cc(OC)c1OC | < 4.70 | < 4.00 | < 4.70 | < 4.00 | < 4.70 | < 4.70 | – | – | – | –
30 | COC(=O)c1ccc(-c2nc(C(=O)c3cc(OC)c(OC)c(OC)c3)cs2)cc1 | < 4.70 | < 4.00 | < 4.70 | < 4.00 | < 4.70 | < 4.70 | – | – | – | –
31 | COc1cc(C(=O)c2cscn2)cc(OC)c1OC | < 4.70 | < 4.00 | < 4.70 | < 4.00 | < 4.70 | < 4.70 | – | – | – | –
32 | O=C(c1ccccn1)c1csc(-c2ccccc2)n1 | < 4.70 | < 4.00 | < 4.70 | < 4.00 | < 4.70 | < 4.70 | – | – | – | –
33 | COc1cc(C(=O)c2csc(-c3ccc(C)cc3)n2)cc(OC)c1OC | 8.22 | 7.68 | – | 7.96 | 8.15 | 8.30 | – | – | – | –
34 | COc1ccc(C(=O)c2csc(-c3ccccc3)n2)cc1 | < 4.70 | < 4.00 | < 4.70 | < 4.00 | < 4.70 | < 4.70 | – | – | – | –
35 | COc1cc(C(=O)c2csc(-c3ccccc3F)n2)cc(OC)c1OC | 7.28 | 7.57 | 7.28 | 7.52 | 6.94 | 7.09 | – | – | – | –
36 | COc1ccccc1C(=O)c1csc(-c2ccccc2)n1 | < 4.70 | 4.23 | < 4.70 | 4.15 | < 4.70 | < 4.70 | – | – | – | –
